# Laboratory results reported in patent US10968225B2, “Compounds and compositions for the treatment of cystic fibrosis” (Fondazione Istituto Italiano Di Tecnologia, priority 2017, dated 2021).
# Counter-ions that a name gives are not always drawn.
# Molecular target: T1, mutant CFTR (Homo sapiens, UniProt P13569, DEL508-508)
# T1 construct: expressed in transfected cells
# Experiment: Fluorescence (HS-YFP) assay for CFTR activity, corrector assay
# Format: cell-based
# Settings: CFBE41o- and FRT cells with stable expression of mutant CFTR, read-out: activity (EC50)
# T1 sequence (P13569 with tags, fused parts or gaps DEL508-508): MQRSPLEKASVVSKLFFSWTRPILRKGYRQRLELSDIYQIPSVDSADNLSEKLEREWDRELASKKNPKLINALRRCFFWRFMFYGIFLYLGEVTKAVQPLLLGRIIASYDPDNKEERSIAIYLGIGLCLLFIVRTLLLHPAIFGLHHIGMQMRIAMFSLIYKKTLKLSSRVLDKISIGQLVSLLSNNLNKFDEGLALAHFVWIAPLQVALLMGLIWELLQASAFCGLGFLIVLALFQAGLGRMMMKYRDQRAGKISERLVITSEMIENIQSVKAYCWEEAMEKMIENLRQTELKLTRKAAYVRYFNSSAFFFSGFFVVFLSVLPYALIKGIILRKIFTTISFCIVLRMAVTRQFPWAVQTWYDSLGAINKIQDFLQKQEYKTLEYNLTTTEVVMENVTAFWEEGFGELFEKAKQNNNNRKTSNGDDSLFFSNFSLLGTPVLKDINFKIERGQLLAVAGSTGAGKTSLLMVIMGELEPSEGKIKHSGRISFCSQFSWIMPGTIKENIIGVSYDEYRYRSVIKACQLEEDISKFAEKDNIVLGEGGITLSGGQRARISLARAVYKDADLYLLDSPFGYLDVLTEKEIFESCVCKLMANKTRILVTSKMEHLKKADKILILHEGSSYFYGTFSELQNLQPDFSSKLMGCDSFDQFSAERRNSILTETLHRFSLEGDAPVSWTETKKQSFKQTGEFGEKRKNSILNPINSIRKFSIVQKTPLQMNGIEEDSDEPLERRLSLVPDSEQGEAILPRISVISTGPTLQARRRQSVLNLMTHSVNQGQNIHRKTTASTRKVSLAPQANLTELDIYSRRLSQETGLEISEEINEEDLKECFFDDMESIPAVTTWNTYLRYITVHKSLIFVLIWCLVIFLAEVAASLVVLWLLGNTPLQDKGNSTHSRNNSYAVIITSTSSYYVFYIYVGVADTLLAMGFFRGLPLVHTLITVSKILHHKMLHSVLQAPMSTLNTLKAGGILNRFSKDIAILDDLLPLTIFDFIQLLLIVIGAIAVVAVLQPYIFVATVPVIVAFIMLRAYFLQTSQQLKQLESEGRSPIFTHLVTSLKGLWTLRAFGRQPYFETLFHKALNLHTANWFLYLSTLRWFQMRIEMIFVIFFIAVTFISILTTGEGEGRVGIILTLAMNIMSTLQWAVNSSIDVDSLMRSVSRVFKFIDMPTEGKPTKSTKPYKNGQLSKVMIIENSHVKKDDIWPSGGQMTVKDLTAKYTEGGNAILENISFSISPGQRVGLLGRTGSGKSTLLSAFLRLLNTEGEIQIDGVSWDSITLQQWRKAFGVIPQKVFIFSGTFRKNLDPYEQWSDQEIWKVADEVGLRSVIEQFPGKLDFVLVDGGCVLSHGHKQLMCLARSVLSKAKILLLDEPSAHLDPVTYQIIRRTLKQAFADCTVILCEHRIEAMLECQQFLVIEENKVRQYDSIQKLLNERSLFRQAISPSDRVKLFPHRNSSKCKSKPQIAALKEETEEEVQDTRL
row,SMILES,EC50 [nM]
1,"CN(c1ccc2c(c1)OCO2)S(=O)(=O)c1cccc(-n2nc(C(F)(F)F)c3c2CCN(C(=O)OC(C)(C)C)C3)c1 [Compound 065, tert-Butyl 1-[3-[1,3-benzodioxol-5-yl(methyl)sulfamoyl]phenyl]-3-(trifluoromethyl)-6,7-dihydro-4H-pyrazolo[4,3-c]pyridine-5-carboxylate]",> 2000
2,"CN(C(=O)c1cccc(-n2nc(C(F)(F)F)c3c2C(Oc2ccc(C(=O)O)cc2)COC3)c1)c1ccc2c(c1)OC(F)(F)O2 (single isomer, unassigned) [Compound 205, (R) or (S)-4-[[1-[3-[(2,2-Difluoro-1,3-benzodioxol-5-yl)-methyl-carbamoyl]phenyl]-3-(trifluoromethyl)-6,7-dihydro-4H-pyrano[4,3-c]pyrazol-7-yl]oxy]benzoic acid]",< 1000
3,"Cc1cc2ncc(N(C)C(=O)c3cccc(-n4nc(C(F)(F)F)c5c4C(Oc4ccc(C(=O)O)cc4)COC5)c3)cn2n1 (racemic) [Compound 294, 4-[[1-[3-[Methyl-(2-methylpyrazolo[1,5-a]pyrimidin-6-yl)carbamoyl]phenyl]-3-(trifluoromethyl)-6,7-dihydro-4H-pyrano[4,3-c]pyrazol-7-yl]oxy]benzoic acid]",< 1000
4,"CN(C(=O)c1cccc(-n2nc(C(F)(F)F)c3c2C(Oc2ccc(C(=O)O)cc2)COC3)c1)c1ccnc(OC(F)F)c1 (racemic) [Compound 270, 4-[[1-[3-[[2-(Difluoromethoxy)-4-pyridyl]-methyl-carbamoyl]phenyl]-3-(trifluoromethyl)-6,7-dihydro-4H-pyrano[4,3-c]pyrazol-7-yl]oxy]benzoic acid]",< 1000
5,"Cc1nc2ncc(N(C)C(=O)c3cccc(-n4nc(C(F)(F)F)c5c4C(Oc4ccc(C(=O)O)cc4)CCC5)c3)cc2o1 (single isomer, unassigned) [Compound 287, (S) or (R)-4-[[1-[3-[Methyl-(2-methyloxazolo[4,5-b]pyridin-6-yl)carbamoyl]phenyl]-3-(trifluoromethyl)-4,5,6,7-tetrahydroindazol-7-yl]oxy]benzoic acid]",< 1000
6,"CN(C(=O)c1cccc(-n2nc(C(F)(F)F)c3c2C(Oc2ccc(C(=O)O)cc2)CCC3)c1)c1cnc(OC2CC2)nc1 (racemic) [Compound 313, 4-[[1-[3-[[2-(Cyclopropoxy)pyrimidin-5-yl]-methyl-carbamoyl]phenyl]-3-(trifluoromethyl)-4,5,6,7-tetrahydroindazol-7-yl]oxy]benzoic acid]",1000 to 2000
7,"CN(C(=O)c1cccc(-n2nc(C(F)(F)F)c3c2C[C@H]2CC[C@@H]3N2C)c1)c1ccc2c(c1)OCO2 (single isomer, unassigned) [Compound 050, (4R,7S)- or (4S,7R)—N-(Benzo[d][1,3]dioxol-5-yl)-N-methyl-3-(9-methyl-3-(trifluoromethyl)-5,6,7,8-tetrahydro-4,7-epiminocyclohepta[c]pyrazol-1(4H)-yl)benzamide]",< 1000
8,"CC(=O)Nc1ccc(N(C)C(=O)c2cccc(-n3nc(C(F)(F)F)c4c3CCN(C)C4)c2)cc1O [Compound 041, N-(4-Acetamido-3-hydroxy-phenyl)-N-methyl-3-[5-methyl-3-(trifluoromethyl)-6,7-dihydro-4H-pyrazolo[4,3-c]pyridin-1-yl]benzamide]",> 2000
9,"CN(C(=O)c1cccc(-n2nc(C(F)(F)F)c3c2CCN(C(=O)c2ccccc2)C3)c1)c1ccc2c(c1)OCO2 [Compound 008, N-(1,3-Benzodioxol-5-yl)-3-[5-benzoyl-3-(trifluoromethyl)-6,7-dihydro-4H-pyrazolo[4,3-c]pyridin-1-yl]-N-methyl-benzamide]",< 1000
10,"CN(C(=O)c1cccc(-n2nc(C(F)(F)F)c3c2C(Oc2ccc(C(=O)O)cc2)CCC3)c1)c1ccnc(C(F)(F)F)c1 (racemic) [Compound 315, 4-[[1-[3-[Methyl-[2-(trifluoromethyl)-4-pyridyl]carbamoyl]phenyl]-3-(trifluoromethyl)-4,5,6,7-tetrahydroindazol-7-yl]oxy]benzoic acid]",1000 to 2000
11,"CN(C(=O)c1cccc(-n2nc(C(F)(F)F)c3c2C(Oc2ccc(C(=O)O)cc2)CCC3)c1)c1cncc(C#N)c1 (racemic) [Compound 310, 4-[[1-[3-[(5-Cyano-3-pyridyl)-methyl-carbamoyl]phenyl]-3-(trifluoromethyl)-4,5,6,7-tetrahydroindazol-7-yl]oxy]benzoic acid]",1000 to 2000
12,"CC(C)c1nn(-c2cccc(C(=O)N(C)c3ccc4c(c3)OCO4)c2)c2c1CCCC2 [Compound 133, N-(1,3-Benzodioxol-5-yl)-3-(3-isopropyl-4,5,6,7-tetrahydroindazol-1-yl)-N-methyl-benzamide]",< 1000
13,"CN(C(=O)c1cccc(-n2nc(C(F)(F)F)c3c2C(Oc2ccc(C(=O)O)cc2)COC3)c1)c1cnc2c(c1)CCC2 (racemic) [Compound 281, 4-[[1-[3-[6,7-Dihydro-5H-cyclopenta[b]pyridin-3-yl(methyl)carbamoyl]phenyl]-3-(trifluoromethyl)-6,7-dihydro-4H-pyrano[4,3-c]pyrazol-7-yl]oxy]benzoic acid]",1000 to 2000
14,"CC(C)Oc1cncc(N(C)C(=O)c2cccc(-n3nc(C(F)(F)F)c4c3C(Oc3ccc(C(=O)O)cc3)CCC4)c2)c1 (racemic) [Compound 312, 4-[[1-[3-[(5-Isopropoxy-3-pyridyl)-methyl-carbamoyl]phenyl]-3-(trifluoromethyl)-4,5,6,7-tetrahydroindazol-7-yl]oxy]benzoic acid]",1000 to 2000
15,"CN(C(=O)c1cccc(-n2nc(C(F)(F)F)c3c2C(Oc2ccc(C(=O)O)cc2)COC3)c1)c1ccc2c(c1)OCC2 (racemic) [Compound 265, 4-[[1-[3-[2,3-Dihydrobenzofuran-6-yl(methyl)carbamoyl]phenyl]-3-(trifluoromethyl)-6,7-dihydro-4H-pyrano[4,3-c]pyrazol-7-yl]oxy]benzoic acid]",< 1000
16,"Cc1nn(CCC(=O)OC(C)(C)C)c(C)c1S(=O)(=O)N1CCc2c(c(C(F)(F)F)nn2-c2cccc(C(=O)N(C)c3ccc4c(c3)OCO4)c2)C1 [Compound 082, tert-Butyl 3-[4-[[1-[3-[1,3-benzodioxol-5-yl(methyl)carbamoyl]phenyl]-3-(trifluoromethyl)-6,7-dihydro-4H-pyrazolo[4,3-c]pyridin-5-yl]sulfonyl]-3,5-dimethyl-pyrazol-1-yl]propanoate]",< 1000
17,"CN(C(=O)c1cccc(-n2nc(C(F)(F)F)c3c2C(Oc2ccc(C(=O)O)cc2)CNC3)c1)c1ccc2c(c1)OC(F)(F)O2 (racemic) [Compound 273, 4-[[1-[3-[(2,2-Difluoro-1,3-benzodioxol-5-yl)-methyl-carbamoyl]phenyl]-3-(trifluoromethyl)-4,5,6,7-tetrahydropyrazolo[4,3-c]pyridin-7-yl]oxy]benzoic acid hydrochloride]",< 1000
18,"CN(C(=O)c1cccc(-n2nc(C(F)(F)F)c3c2C(Oc2ccc(C(=O)O)cc2)CCC3)c1)c1cncc(F)c1 (racemic) [Compound 307, (rac)-4-[[1-[3-[(5-fluoro-3-pyridyl)methyl-carbamoyl]phenyl]-3-(trifluoromethyl)-4,5,6,7-tetrahydroindazol-7-yl]oxy]benzoic acid]",> 2000
19,"CN(C(=O)c1cccc(-n2nc(C(F)(F)F)c3c2C(Oc2ccc(C(=O)O)cc2)CCC3)c1)c1ccc2c(c1)OCC2 (racemic) [Compound 261, (rac)-4-[[1-[3-[2,3-Dihydrobenzofuran-6-yl(methyl)carbamoyl]phenyl]-3-(trifluoromethyl)-4,5,6,7-tetrahydroindazol-7-yl]oxy]benzoic acid]",< 1000
20,"CN(C(=O)c1cccc(-n2nc(C(F)(F)F)c3c2C(Oc2ncc(C(=O)O)cn2)COC3)c1)c1ccc2c(c1)OCC2 (racemic) [Compound 296, 2-[[1-[3-[2,3-Dihydrobenzofuran-6-yl(methyl)carbamoyl]phenyl]-3-(trifluoromethyl)-6,7-dihydro-4H-pyrano[4,3-c]pyrazol-7-yl]oxy]pyrimidine-5-carboxylic acid]",< 1000
21,"CN(C(=O)c1cccc(-n2nc(C(F)(F)F)c3c2CN(C(=O)OC(C)(C)C)CC3)c1)c1ccc2c(c1)OCO2 [Compound 027, tert-Butyl 1-[3-[1,3-benzodioxol-5-yl(methyl)carbamoyl]phenyl]-3-(trifluoromethyl)-5,7-dihydro-4H-pyrazolo[3,4-c]pyridine-6-carboxylate]",< 1000
22,"Cc1nc2ccc(N(C)C(=O)c3cccc(-n4nc(C(F)(F)F)c5c4CCN(S(=O)(=O)c4c(C)noc4C)C5)c3)cc2o1 [Compound 137, 3-[5-(3,5-Dimethylisoxazol-4-yl)sulfonyl-3-(trifluoromethyl)-6,7-dihydro-4H-pyrazolo[4,3-c]pyridin-1-yl]-N-methyl-N-(2-methyl-1,3-benzoxazol-6-yl)benzamide]",< 1000
23,"CN(C(=O)c1cccc(-n2nc(C(F)(F)F)c3c2C(Oc2cccc(C(=O)O)c2)CCC3)c1)c1ccc2c(c1)OC(F)(F)O2 (centres unmarked) [Compound 170, 3-[[1-[3-[(2,2-Difluoro-1,3-benzodioxol-5-yl)-methyl-carbamoyl]phenyl]-3-(trifluoromethyl)-4,5,6,7-tetrahydroindazol-7-yl]oxy]benzoic acid]",< 1000
24,"CN(C(=O)c1cccc(-n2nc(C(F)(F)F)c3c2CN(C(=O)C(C)(C)C)CC3)c1)c1ccc2c(c1)OCO2 [Compound 072, N-(1,3-Benzodioxol-5-yl)-3-[6-(2,2-dimethylpropanoyl)-3-(trifluoromethyl)-5,7-dihydro-4H-pyrazolo[3,4-c]pyridin-1-yl]-N-methyl-benzamide]",< 1000
25,"Cc1nc2ccc(NC(=O)c3cccc(-n4nc(C(F)(F)F)c5c4CCN(C(=O)C(C)(C)C)C5)c3)cn2n1 [Compound 078, 3-[5-(2,2-Dimethylpropanoyl)-3-(trifluoromethyl)-6,7-dihydro-4Hpyrazolo[4,3-c]pyridin-1-yl]-N-(2-methyl-[1,2,4]triazolo[1,5-a]pyridin-6-yl)benzamide]",> 2000

# Same assay, conditions: activity (EC50), CFBE41o- and FRT cells with stable expression of mutant CFTR
row,SMILES,EC50 [nM]
1,"CN(C(=O)c1cccc(-n2nc(C(F)(F)F)c3c2C[C@@H]2CC[C@H]3N2)c1)c1ccc2c(c1)OCO2 (single isomer, unassigned) [Compound 049, (4S,7R)- or (4R,7S)—N-(Benzo[d][1,3]dioxol-5-yl)-N-methyl-3-(3-(trifluoromethyl)-5,6,7,8-tetrahydro-4,7-epiminocyclohepta [c]pyrazol-1(4H)-yl)benzamide]",1000 to 2000
